Measured values as given in patent publication US20240109885A1, “2,3-DIHYDRO-1H-PYRROLO[3,2-B]PYRIDINE DERIVATIVE, PREPARATION METHOD THEREFOR, AND APPLICATION THEREOF” (Abbisko Therapeutics Co., Ltd, priority 2020, published 2024).

Columns and labels:
Format in all cases: cell-based
[1] = molecular target: Ba/F3 EGFR-D770-N771ins_SVD (Homo sapiens, UniProt P00533, DUP768-770, cells depend on it); assay: Cell proliferation assay (CellTiter-Glo), Ba/F3 EGFR-D770-N771ins_SVD cells; details: 72 hrs, CTG assay, * = average of multiple measurements, read-out: Ba/F3 EGFR-D770-N771ins_SVD (nM), IC50 of cell proliferation
Outline: (§1)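 Cells seeded overnight, then treated in triplicate with 9 concentrations (3.16-fold dilutions; 0.1% DMSO final) for 72 h at 37 °C, 5% CO2. Viability by CellTiter-Glo luminescence, normalised to cell and medium controls; IC50 (nM) from nonlinear sigmoidal fit.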

[2] = molecular target: Ba/F3 EGFR-V769_D770insASV (Homo sapiens, UniProt P00533, DUP767-769, cells depend on it); assay: Cell proliferation assay (CellTiter-Glo), Ba/F3 EGFR-V769_D770insASV cells; details: 72 hrs, CTG assay, * = average of multiple measurements, read-out: Ba/F3 EGFR-V769_D770insASV (nM), IC50 of cell proliferation
Outline: as §1

A431 (EGFR-WT) = assay: Cell proliferation assay (CellTiter-Glo), A431 cells; details: Homo sapiens, A-431, 72 hrs, CTG assay, * = average of multiple measurements
Outline: as §1

Chain of Ba/F3 EGFR-V769_D770insASV (P00533 with tags, fused parts or gaps DUP767-769): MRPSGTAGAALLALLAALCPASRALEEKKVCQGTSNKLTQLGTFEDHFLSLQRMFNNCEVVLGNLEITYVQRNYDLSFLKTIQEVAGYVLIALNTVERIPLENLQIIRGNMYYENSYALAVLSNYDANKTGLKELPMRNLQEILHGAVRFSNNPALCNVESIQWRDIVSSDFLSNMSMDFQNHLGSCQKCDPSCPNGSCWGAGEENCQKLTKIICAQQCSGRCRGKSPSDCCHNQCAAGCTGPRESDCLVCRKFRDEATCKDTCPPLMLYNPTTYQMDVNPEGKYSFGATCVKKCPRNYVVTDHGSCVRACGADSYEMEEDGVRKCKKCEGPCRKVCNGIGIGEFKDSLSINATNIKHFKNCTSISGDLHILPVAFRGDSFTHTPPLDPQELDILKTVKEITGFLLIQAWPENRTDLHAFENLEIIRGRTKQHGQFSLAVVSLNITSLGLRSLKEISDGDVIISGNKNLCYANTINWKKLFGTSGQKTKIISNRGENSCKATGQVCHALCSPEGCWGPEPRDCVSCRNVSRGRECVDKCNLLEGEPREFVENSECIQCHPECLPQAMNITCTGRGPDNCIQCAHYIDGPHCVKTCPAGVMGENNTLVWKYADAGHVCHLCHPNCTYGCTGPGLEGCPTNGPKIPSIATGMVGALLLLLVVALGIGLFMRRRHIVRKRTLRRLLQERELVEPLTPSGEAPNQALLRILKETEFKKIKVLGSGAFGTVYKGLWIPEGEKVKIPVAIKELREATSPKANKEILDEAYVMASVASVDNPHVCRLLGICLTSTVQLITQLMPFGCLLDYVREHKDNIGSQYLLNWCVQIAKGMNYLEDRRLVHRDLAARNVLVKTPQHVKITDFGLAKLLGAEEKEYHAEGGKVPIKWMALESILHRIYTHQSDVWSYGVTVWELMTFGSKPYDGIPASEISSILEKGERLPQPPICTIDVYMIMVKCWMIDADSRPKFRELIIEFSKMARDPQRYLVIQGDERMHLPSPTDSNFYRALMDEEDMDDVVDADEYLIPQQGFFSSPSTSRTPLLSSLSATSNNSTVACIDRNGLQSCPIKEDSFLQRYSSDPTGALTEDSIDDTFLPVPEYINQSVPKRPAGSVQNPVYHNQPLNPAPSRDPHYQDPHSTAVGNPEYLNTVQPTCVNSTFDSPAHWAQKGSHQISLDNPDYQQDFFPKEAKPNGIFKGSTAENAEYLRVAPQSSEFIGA
Chain of Ba/F3 EGFR-D770-N771ins_SVD (P00533 with tags, fused parts or gaps DUP768-770): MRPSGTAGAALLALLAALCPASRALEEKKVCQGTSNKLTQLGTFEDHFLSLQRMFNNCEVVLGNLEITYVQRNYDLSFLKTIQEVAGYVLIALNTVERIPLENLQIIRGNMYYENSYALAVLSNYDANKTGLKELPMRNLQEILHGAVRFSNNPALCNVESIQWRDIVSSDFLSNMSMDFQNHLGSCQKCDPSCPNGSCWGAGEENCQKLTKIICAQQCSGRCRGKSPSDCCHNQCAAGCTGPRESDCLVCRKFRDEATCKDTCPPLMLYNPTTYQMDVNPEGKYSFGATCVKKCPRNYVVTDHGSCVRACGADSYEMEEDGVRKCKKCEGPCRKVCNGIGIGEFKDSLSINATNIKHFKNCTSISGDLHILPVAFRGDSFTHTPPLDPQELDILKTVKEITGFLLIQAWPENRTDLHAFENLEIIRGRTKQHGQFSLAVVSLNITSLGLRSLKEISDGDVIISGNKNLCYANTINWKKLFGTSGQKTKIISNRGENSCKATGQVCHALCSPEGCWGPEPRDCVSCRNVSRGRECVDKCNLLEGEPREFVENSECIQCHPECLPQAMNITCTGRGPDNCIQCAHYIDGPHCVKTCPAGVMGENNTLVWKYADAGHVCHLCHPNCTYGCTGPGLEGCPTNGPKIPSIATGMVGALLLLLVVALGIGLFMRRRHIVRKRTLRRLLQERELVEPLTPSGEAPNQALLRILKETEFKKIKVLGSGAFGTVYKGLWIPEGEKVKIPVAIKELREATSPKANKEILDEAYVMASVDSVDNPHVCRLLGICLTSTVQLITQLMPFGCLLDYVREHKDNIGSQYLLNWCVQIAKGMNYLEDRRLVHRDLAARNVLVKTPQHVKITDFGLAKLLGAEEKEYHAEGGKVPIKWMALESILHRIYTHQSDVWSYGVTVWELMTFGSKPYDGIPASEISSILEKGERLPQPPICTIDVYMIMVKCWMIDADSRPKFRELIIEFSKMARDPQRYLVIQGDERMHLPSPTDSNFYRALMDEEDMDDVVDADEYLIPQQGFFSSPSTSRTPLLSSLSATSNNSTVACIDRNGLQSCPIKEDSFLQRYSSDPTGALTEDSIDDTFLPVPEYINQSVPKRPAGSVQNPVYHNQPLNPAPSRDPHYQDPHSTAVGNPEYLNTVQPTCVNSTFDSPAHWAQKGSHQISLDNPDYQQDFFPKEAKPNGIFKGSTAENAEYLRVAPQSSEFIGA

Work on `C=CC(=O)Nc1cc(Nc2nccc(N3CC4(CCCCC4)c4nc(C)ccc43)n2)c(OCC(F)(F)F)nc1N(C)CCN(C)C` [Example 42, N-(2-((2-(dimethylamino)ethyl) (methyl)amino)-5-((4-(5′-methyl-spiro[cyclohexane-1,3′-pyrrolo[3,2-b]pyridin]-1′(2′H)-yl)pyrimidin-2-yl)amino)-6-(2,2,2-trifluoroethoxy)pyridin-3-yl)acrylamide] yielded a GI50 [1] of 11.6 nM, a GI50 [2] of 23.5 nM and an IC50 (A431 (EGFR-WT)) of 488 nM.
